In this assay the target is T1, C5a Receptor (Homo sapiens, UniProt P21730).
T1 construct: 2.5-25 ug/mL of purified PMNL membrane fragments; endogenous in cells; host or cells: PMNL (polymorphonuclear leukocytes), purified membrane fragments
T1 sequence (P21730 1-350): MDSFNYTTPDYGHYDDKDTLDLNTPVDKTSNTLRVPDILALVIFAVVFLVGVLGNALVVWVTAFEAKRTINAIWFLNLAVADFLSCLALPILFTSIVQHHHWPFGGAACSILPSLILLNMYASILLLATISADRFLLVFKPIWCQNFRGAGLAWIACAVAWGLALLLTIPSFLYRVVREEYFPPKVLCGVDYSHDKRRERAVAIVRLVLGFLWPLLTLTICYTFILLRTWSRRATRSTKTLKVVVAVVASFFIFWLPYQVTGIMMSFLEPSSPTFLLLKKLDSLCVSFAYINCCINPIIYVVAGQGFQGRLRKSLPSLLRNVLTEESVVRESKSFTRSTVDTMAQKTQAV
Description: Anaphylatoxin Receptor Binding Ki Determination (inhibition of 125I-C5a binding to PMNL membrane fragments). As to conditions: 0.03-1 nM 125I-C5a; 2.5-25 ug/mL purified PMNL membrane fragments; filtration; read-out: In vitro C5a Receptor Binding Potency Ki. The source says: Free and membrane-bound ligand were separated by filtration.

SMILES strings stand for the structures. Numbered stars: 1 amine (or outer) side, 2 acyl side, 3 side chain; on linkers, the order of the positions; unused ones are H or OH. Square brackets hold non-standard residues; d marks the D form. Peptide text beside a SMILES is read from it. * marks the point of attachment. X1 = N=C(N)NCCC[C@@H](NC[C@H](Cc1ccccc1)N*)C(=O)O; X4 = NCCCC[C@@H](CN1CCC[C@H]1C(=O)[*:2])N[*:1]; X2 = CN(CCCCC(Cc1ccccc1)C(=O)[*:2])[*:1]; X3 = CN(C(CCCc1ccccc1)C(=O)[*:2])[*:1]; d(β3hF) = N[C@@H](CC(=O)O)Cc1ccccc1; NMeCha = CN[C@@H](CC1CCCCC1)C(=O)O; NMeF = CN[C@@H](Cc1ccccc1)C(=O)O; NMeGABA = CN(CCCC(=O)[*:2])[*:1]; Cha = N[C@@H](CC1CCCCC1)C(=O)O; dCha = N[C@H](CC1CCCCC1)C(=O)O; NMeA = CN[C@@H](C)C(=O)O; Nle = CCCC[C@H](N)C(=O)O; Aze = O=C(O)[C@@H]1CCN1; Ahx = NCCCCCC(=O)O; βAla = NCCC(=O)O; Sar = CNCC(=O)O

In the case of `CN[C@@H](Cc1ccccc1)C(=O)N[C@@H](CCCCN)C(=O)N1CCC[C@H]1C(=O)N[C@H](CC1CCCCC1)C(=O)N[C@@H](Cc1ccccc1)C(C)N[C@@H](CCCNC(=N)N)C(=O)O` (mixture of isomers) [Example 143, (N-Methyl)Phenylalanyl-Lysyl-Prolyl-{(2R)-2-Amino-3-cyclohexylpropanoyl}-Phenylalanyl-.PSI.{(R/S)CH(CH3)NH}-Arginyl-OH], the Ki was found to be 4200 nM.

As to `CN[C@@H](Cc1ccccc1)C(=O)N[C@@H](CCCCN)CN1CCC[C@H]1C(=O)N[C@H](CC1CCCCC1)C(=O)N[C@@H](CC1CCCCC1)C(=O)N[C@H](CCCNC(=N)N)C(=O)O` [Example 79, (N-Methyl)Phenylalanyl-Lysyl-.PSI.{CH2 NH}-Prolyl-{(2R)-2-Amino-3-cyclohexylpropanoyl}-{(2S)-2-Amino-3-cyclohexylpropanoyl}-DArginyl-OH] (H-[NMeF][X4][dCha][Cha][dR]-OH), the Ki was 14500 nM.

As for `C[C@H](NC(=O)[C@H](CCCCN)NC(=O)[C@@H](N)Cc1ccccc1)C(=O)N[C@@H](CC1CCCCC1)C(=O)NCCC(=O)N[C@H](CCCNC(=N)N)C(=O)O` [Example 19, H-Phenylalanyl-Lysyl-Alanyl-{(2S)-2-Amino-3-cyclohexylpropanoyl}-{3-Aminopropanoyl}-DArginyl-OH] (H-FKA[Cha][βAla][dR]-OH), the Ki amounted to 130000 nM.

With `CN[C@@H](Cc1ccccc1)C(=O)N[C@@H](CCCCN)C(=O)N1CCC[C@H]1C(=O)N[C@H](CC1CCCCC1)C(=O)N[C@H](CN[C@H](CCCNC(=N)N)C(=O)O)Cc1ccccc1` [Example 2, (N-Methyl)Phenylalanyl-Lysyl-Prolyl-{(2R)-2-Amino-3-cyclohexylpropanoyl}-Phenylalanyl-.PSI.(CH2 NH)-DArginyl-OH] (H-[NMeF]KP[dCha]-X1), the Ki turned out to be 1000 nM.

Consider `N=C(N)NCCC[C@@H](NC(=O)[C@H](CC1CCCCC1)NC(=O)[C@@H](CC1CCCCC1)NC(=O)[C@@H]1CCN1C(=O)[C@H](CCCCN)NC(=O)[C@@H](N)Cc1ccccc1)C(=O)O` [Example 43, H-Phenylalanyl-Lysyl-{(2S)-Azetidine-2-carbonyl}-{(2R)-2-Amino-3-cyclohexylpropanoyl}-{(2S)-2-Amino-3-cyclohexylpropanoyl}-DArginyl-OH] (H-FK[Aze][dCha][Cha][dR]-OH), for which the inhibition constant Ki was 23 nM.

For the molecule `C[C@H](NC(=O)[C@H](CCCCN)NC(=O)[C@@H](N)Cc1ccccc1)C(=O)N[C@H](CC1CCCCC1)C(=O)N(C)[C@@H](CC1CCCCC1)C(=O)N[C@H](CCCNC(=N)N)C(=O)O` [Example 40, H-Phenylalanyl-Lysyl-Alanyl-{(2R)-2-Amino-3-cyclohexylpropanoyl}-{(N-Methyl)(2S)-2-Amino-3cyclohexylpropanoyl}-DArginyl-OH] (H-FKA[dCha][NMeCha][dR]-OH), the inhibition constant (Ki) is 590 nM.

For `CC(C)C[C@H](NC(=O)[C@H](CC1CCCCC1)NC(=O)CCNC(=O)[C@H](CCCCN)NC(=O)[C@@H](N)Cc1ccccc1)C(=O)N[C@H](C)C(=O)N[C@@H](CCCNC(=N)N)C(=O)O` [Example 7, H-Phenylalanyl-Lysyl-{3-Aminopropanoyl}-{(2S)-2-Amino-3-cyclohexylpropanoyl}-Leucyl-DAlanyl-Arginyl-OH] (H-FK[βAla][Cha]L[dA]R-OH), the Ki was 2200 nM.

Regarding `CN[C@@H](Cc1ccccc1)C(=O)N[C@@H](CCCCN)C(=O)N(C)[C@@H](C)C(=O)N[C@H](CC1CCCCC1)C(=O)N[C@@H](CC1CCCCC1)C(=O)N[C@H](CCCNC(=N)N)C(=O)O` [Example 34, (N-Methyl)Phenylalanyl-Lysyl-(N-Methyl)Alanyl-{(2R)-2-Amino-3-cyclohexylpropanoyl}-{(2S)-2-Amino-3-cyclohexylpropanoyl}-DArginyl-OH] (H-[NMeF]K[NMeA][dCha][Cha][dR]-OH), the inhibitory constant (Ki) stood at 34 nM.

As for `CC(C)C[C@H](NC(=O)[C@H](CC1CCCCC1)NC(=O)[C@H](C)N(C)C(=O)[C@H](CCCCN)NC(=O)[C@@H](N)Cc1ccccc1)C(=O)N[C@H](C)C(=O)N[C@@H](CCCNC(=N)N)C(=O)O` [Example 17, H-Phenylalanyl-Lysyl-(N-Methyl)Alanyl-{(2S)-2-Amino-3-cyclohexylpropanoyl}-Leucyl-DAlanyl-Arginyl-OH] (H-FK[NMeA][Cha]L[dA]R-OH), the Ki is 2500 nM.

Consider `CN[C@@H](Cc1ccccc1)C(=O)N[C@@H](CCCCN)C(=O)N1CCC[C@H]1CN[C@H](CC1CCCCC1)C(=O)N[C@@H](Cc1ccccc1)C(=O)N[C@H](CCCNC(=N)N)C(=O)O` [Example 103], for which the Ki is 360 nM.

With `CN(CC(=O)N[C@H](CC1CCCCC1)C(=O)N[C@@H](CC1CCCCC1)C(=O)N[C@H](CCCNC(=N)N)C(=O)O)C(=O)[C@H](CCCCN)NC(=O)[C@@H](N)Cc1ccccc1` [Example 56, H-Phenylalanyl-Lysyl-Sarcosyl-{(2R)-2-Amino-3-cyclohexylpropanoyl}-{(2S)-2-Amino-3-cyclohexylpropanoyl}-DArginyl-OH] (H-FK[Sar][dCha][Cha][dR]-OH), the Ki is 14 nM.

On to `CN[C@@H](Cc1ccccc1)C(=O)N[C@@H](CCCCN)C(=O)N(C)[C@@H](Cc1ccccc1)C(=O)N[C@H](CC1CCCCC1)C(=O)N[C@@H](CC1CCCCC1)C(=O)N[C@H](CCCNC(=N)N)C(=O)O` [Example 61, (N-Methyl)Phenylalanyl-Lysyl-(N-Methyl)Phenylalanyl-{(2R)-2-Amino-3-cyclohexylpropanoyl}-{(2S)-2-Amino-3-cyclohexylpropanoyl}-DArginyl-OH] (H-[NMeF]K[NMeF][dCha][Cha][dR]-OH), for which the Ki is 220 nM.

As to `CN[C@@H](Cc1ccccc1)C(=O)N[C@@H](CCCCN)C(=O)N(C)CCCC(=O)N[C@@H](Cc1ccccc1)C(=O)N[C@H](CCCNC(=N)N)C(=O)O` [Example 121, (N-Methyl)Phenylalanyl-Lysyl-{4-(Methylamino)butanoyl}-Phenylalanyl-DArginyl-OH] (H-[NMeF]K[NMeGABA]F[dR]-OH), the Ki worked out at 21000 nM.

In the case of `CN[C@@H](Cc1ccccc1)C(=O)N[C@@H](CCCCN)C(=O)N(C)C(CCCc1ccccc1)C(=O)N[C@H](CC1CCCCC1)C(=O)N[C@@H](Cc1ccccc1)C(=O)N[C@H](CCCNC(=N)N)C(=O)O` (stereo partly drawn) [Example 156, (N-Methyl)Phenylalanyl-Lysyl-{(2R/S)-2-Methylamino-5-phenylpentanoyl}-{(2R)-2-Amino-3-cyclohexylpropanoyl}-Phenylalanyl-DArginyl-OH] (H-[NMeF]K[X3][dCha]F[dR]-OH), the Ki was found to be 660 nM.

On to `CCCC[C@H](NC(=O)[C@H](Cc1ccccc1)NC)C(=O)N(C)[C@@H](C)C(=O)N[C@H](CC1CCCCC1)C(=O)N[C@@H](CC1CCCCC1)C(=O)N[C@H](CCCNC(=N)N)C(=O)O` [Example 62, (N-Methyl)Phenylalanyl-Norleucyl-(N-Methyl)Alanyl-{(2R)-2-Amino-3-cyclohexylpropanoyl}-{(2S)-2-Amino-3-cyclohexylpropanoyl}-DArginyl-OH] (H-[NMeF][Nle][NMeA][dCha][Cha][dR]-OH), for which the Ki turned out to be 260 nM.

As for `C[C@H](NC(=O)[C@H](CCCCN)NC(=O)[C@@H](N)Cc1ccccc1)C(=O)N[C@@H](CC1CCCCC1)C(=O)NCCCCCC(=O)N[C@@H](CCCNC(=N)N)C(=O)O` [Example 10, H-Phenylalanyl-Lysyl-Alanyl-{(2S)-2-Amino-3-cyclohexylpropanoyl}-{6-Aminohexanoyl}-Arginyl-OH] (H-FKA[Cha][Ahx]R-OH), the Ki came to 85000 nM.

As to `CN[C@@H](Cc1ccccc1)C(=O)N[C@@H](CCCCN)C(=O)N1CCC[C@H]1C(=O)N[C@H](CC1CCCCC1)C(=O)N[C@@H](Cc1ccccc1)C(=O)N[C@@H](CC(=O)O)Cc1ccccc1` [Example 170, (N-Methyl)Phenylalanyl-Lysyl-Prolyl-{(2R)-2-Amino-3-cyclohexylpropanoyl}-Phenylalanyl-{(3R)-Amino-4-phenylbutanoic acid}] (H-[NMeF]KP[dCha]F[d(β3hF)]-OH), the inhibition constant Ki was determined as 2600 nM.

For `CC(C)C[C@H](NC(=O)[C@H](CCC(N)=O)NC(=O)CCCCCNC(=O)[C@@H](N)Cc1c[nH]cn1)C(=O)NCC(=O)N[C@@H](CCCNC(=N)N)C(=O)O` [Example 4, H-Histidyl-{6-Aminohexanoyl}-Glutaminyl-Leucyl-Glycyl-Arginyl-OH] (H-H[Ahx]QLGR-OH), the Ki came to 180000 nM.

Turning to `CN[C@@H](Cc1ccccc1)C(=O)N[C@@H](CCCCN)C(=O)N(C)CCCCC(Cc1ccccc1)C(=O)N[C@@H](Cc1ccccc1)C(=O)N[C@H](CCCNC(=N)N)C(=O)O` (stereo partly shown) [Example 134] (H-[NMeF]K[X2]F[dR]-OH), the inhibitory constant (Ki) amounted to 6800 nM.

One may read the Ki as the dissociation constant of the complex between target and ligand, obtained from inhibition or displacement.

The record behind these values is patent US5387671A, “Hexa- and heptapeptide anaphylatoxin-receptor ligands” (Abbott Laboratories, priority 1990, dated 1995).
